# Results as given in patent publication US9161930B2, “Pharmaceutical composition for diabetic nephropathy and its preparation and application” (Guangzhou Consun Medicine R & D Co., Ltd., priority 2009, dated 2015).
# Assays:
# [1] = test system: STZ diabetic nephropathy model rat; test: 24 hour urine indicators in rat model of diabetic nephropathy induced by STZ; assay type: in vivo, Wistar rat; conditions: 14 weeks; for Total protein (mg) of urine / micro-albumen / urine creatinine: 24 hour urine
# Protocol: (§1) Model by administrating of low dose STZ for several times and determinate as the model rat of diabetic nephropathy, divide into 6 groups with 10 mice/group: model group, positive drug control group (aminoguanidine, 100 mg/kg), water extract of Cortex Mori group, 3 different concentration doses of DPMC group (high dose group: 4 mg/kg; middle dose group: 2 mg/kg; low dose: 1 mg/kg), normal control group.
# (§2) Each group is given the same volume corresponding drug in different concentration or physiological saline everyday by intragastric administration for 14 weeks.
# (§3) Collect the 24 hour urine after administration is over, calculate the urine volume and determinate the content of total protein of urine, micro-albumen and urine creatinine; obtain blood by eye sockets and determinate the biochemical indicator with automatic biochemistry analyzer; take out of the double kidneys, fix with formalin and remain to histopathologic examination.
# (§4) Statistical analysis of all determinations is calculated by interclass t-test and expressed as x±s.
# [2] = test system: STZ diabetic nephropathy model rat; test: Serum biochemical indicators in rat of diabetic nephropathy (STZ); assay type: in vivo, Wistar rat; conditions: 14 weeks
# Protocol: as §1, §2, §3, §4
# [3] = test system: CTGF; test: CTGF expression of rat glomcrulus in model of diabetic nephropathy; assay type: in vivo, Wistar rat; conditions: 14 weeks, STZ rat
# Protocol: as §1, §2, §3, §4
# [4] = test system: STZ diabetic nephropathy model rat; test: Pathohistology (pathology score) of rat glomcrulus in model of diabetic nephropathy; assay type: in vivo, Wistar rat; conditions: 14 weeks
# Protocol: as §1, §2, §3, §4
# [5] = test system: Rat messangial cell line HBZY-1; test: Hydroxyproline content in supernatant of rat mesangial cells induced by AGEs; assay type: cell-based; conditions: AGEs 0.25 mg/ml, 48 h, supernatant of HBZY-1 cells
# Protocol: Dissolved the 5% bovine serum albumin (BSA) without globulin and 0.5 mol/L D-amylaceum in 0.2 mol/L phosphate buffered solution (PBS, PH=7.2), filtrated with 0.24 μm micropore film and incubated under 37° C. for 60 days. After the incubation of the advanced glycation end products (AGEs) were finished, the umcombinated material was cleaned by extend dialyse method. Diluted to a necessary concentration and filtrated with 0.22 μm micropore film.
# Prepare of unicell suspension with HBZY-1 cells in log phase growth and DMEM medium with 5% newborn calf serum, take 100 μl/well (cell quantities: 1×10^4/well) to the 96-well plate, incubated under 5% CO2 incubator at 37° C. for 24 hours, change with 100 μl the DMEM without serum and incubate another 24 hours to make the cells to anestrum (synchronization). Discard of the supernatant, add 90 μl DMEM medium with 5% newborn calf serum and 10 μl the different concentration of AGEs by gradient dilution with 6 repeat per group, incubate by gradient time, respectively, determinate the proliferation degree of rat mesangial cells by MTT.
# (§5) Put the coverslips pre-treated by poly-L-lysine into 24-well cell culture plates, in order to make the HBZY-1 cells grow on until synchronization. Discard of the supernatant, add 800 μl DMEM medium, 100 μl AGEs (final concentration is 0.25 mg/ml) in each medicine group, then add 100 μl water extract of Cortex Mori (final concentration is 0.1 g/L) or DPMC (final concentration is 0.5, 5, 25 or 125 nM/L). The normal control group is added 1 ml DEME medium when the AGEs group is added 900 μl DMEM medium and 100 μl AGEs (final concentration was 0.25 mg/ml). Every group repeats for 6 times. Then, all the groups are incubated under 5% CO2 incubator at 37° C. for 48 h. Take suction of the cell supernatant for the content determination of hydroxyproline after the cells completely covered the coverslips and take out of the coverslips for immunocytochemistry staining.
# Determinate the hydroxyproline content in cultured fluid of rat mesangial cells and express as x±s, analyze by t-test; observate the TGFβ-1 expression in immunohistochemistry photo of rat mesangial cells under microscope.
# [6] = test system: TGFβ-1; test: TGFβ-1 expression of rat mesangial cells induced by AGEs (immunocytochemistry staining); assay type: cell-based; conditions: 48 h, FIG. 1
# Protocol: as §5, with “staining. […]” for “staining.”
# [7] = 100 mg/kg intragastric everyday
compound,measurement,setting,value
"N=C(N)NN [aminoguanidine, reference compound]","Urine V (24 hr, ml)",[1]; [7],36.2 ± 21.7 mL
same,Total protein (mg) of urine,[1]; [7],43.2 ± 29.9 mg
same,micro-albumen,[1]; [7],1.00 ± 0.27 mg
same,urine creatinine,[1]; [7],4.0 ± 2.3 mmol/L
same,AGEs,[2]; [7],283 ± 78
same,BUN,[2]; [7],6.6 ± 0.8 mmol/L
same,LDL,[2]; [7],2.01 ± 0.58 mmol/L
same,MDA,[2]; [7],5.9 ± 1.7 nmol/L
same,"SC (umol/L), serum creatinine",[2]; [7],77.7 ± 20.3 µmol/L
same,SOD (U/ml),[2]; [7],516 ± 20 U/ml
same,TG,[2]; [7],3.35 ± 0.87 mmol/L
same,CTGF(%),[3]; [7],5.9 ± 2.2 %
same,Pathology score,[4]; [7],2.1 ± 1.0
"COC(=O)Nc1ccc(Cc2ccc(NC(=O)OC)cc2)cc1 [DPMC, 4,4′-diphenylmethane-bis(methyl) carbamates]",hydroxyproline,[5]; 0.5 nM/L,7.68 ± 1.10 µg/mL
same,hydroxyproline,[5]; 5 nM/L,7.76 ± 1.21 µg/mL
same,hydroxyproline,[5]; 25 nM/L,5.71 ± 1.18 µg/mL
same,hydroxyproline,[5]; 125 nM/L,4.76 ± 0.58 µg/mL
same,TGFβ-1 expression of rat mesangial cells induced by AGEs,"[6]; different doses 0.5, 5, 25, 125 nM/L",restrain the TGFβ-1 expression increase
same,TGFβ-1 expression of rat mesangial cells induced by AGEs,[6]; large dose 125 nM/L,performs best
same,"Urine V (24 hr, ml)",[1]; 1 mg/kg intragastric everyday,59.9 ± 21.8 mL
same,Total protein (mg) of urine,[1]; 1 mg/kg intragastric everyday,69.1 ± 20.4 mg
same,micro-albumen,[1]; 1 mg/kg intragastric everyday,1.57 ± 0.56 mg
same,urine creatinine,[1]; 1 mg/kg intragastric everyday,1.4 ± 0.6 mmol/L
same,"Urine V (24 hr, ml)",[1]; 2 mg/kg intragastric everyday,41.3 ± 16.4 mL
same,Total protein (mg) of urine,[1]; 2 mg/kg intragastric everyday,54.0 ± 17.4 mg
same,micro-albumen,[1]; 2 mg/kg intragastric everyday,0.93 ± 0.55 mg
same,urine creatinine,[1]; 2 mg/kg intragastric everyday,2.9 ± 1.2 mmol/L
same,"Urine V (24 hr, ml)",[1]; 4 mg/kg intragastric everyday,33.9 ± 22.2 mL
same,Total protein (mg) of urine,[1]; 4 mg/kg intragastric everyday,46.2 ± 21.6 mg
same,micro-albumen,[1]; 4 mg/kg intragastric everyday,0.92 ± 0.42 mg
same,urine creatinine,[1]; 4 mg/kg intragastric everyday,4.3 ± 2.0 mmol/L
same,AGEs,[2]; 1 mg/kg intragastric everyday,290 ± 59
same,BUN,[2]; 1 mg/kg intragastric everyday,7.0 ± 1.0 mmol/L
same,LDL,[2]; 1 mg/kg intragastric everyday,1.91 ± 0.55 mmol/L
same,MDA,[2]; 1 mg/kg intragastric everyday,7.8 ± 2.3 nmol/L
same,"SC (umol/L), serum creatinine",[2]; 1 mg/kg intragastric everyday,91.0 ± 31.1 µmol/L
same,SOD (U/ml),[2]; 1 mg/kg intragastric everyday,498 ± 33 U/ml
same,TG,[2]; 1 mg/kg intragastric everyday,3.23 ± 0.76 mmol/L
same,AGEs,[2]; 2 mg/kg intragastric everyday,289 ± 56
same,BUN,[2]; 2 mg/kg intragastric everyday,6.6 ± 1.2 mmol/L
same,LDL,[2]; 2 mg/kg intragastric everyday,1.51 ± 0.53 mmol/L
same,MDA,[2]; 2 mg/kg intragastric everyday,6.8 ± 1.9 nmol/L
same,"SC (umol/L), serum creatinine",[2]; 2 mg/kg intragastric everyday,76.6 ± 24.5 µmol/L
same,SOD (U/ml),[2]; 2 mg/kg intragastric everyday,513 ± 41 U/ml
same,TG,[2]; 2 mg/kg intragastric everyday,2.76 ± 0.80 mmol/L
same,AGEs,[2]; 4 mg/kg intragastric everyday,281 ± 78
same,BUN,[2]; 4 mg/kg intragastric everyday,6.5 ± 1.5 mmol/L
same,LDL,[2]; 4 mg/kg intragastric everyday,1.43 ± 0.36 mmol/L
same,MDA,[2]; 4 mg/kg intragastric everyday,6.8 ± 1.3 nmol/L
same,"SC (umol/L), serum creatinine",[2]; 4 mg/kg intragastric everyday,74.0 ± 17.1 µmol/L
same,SOD (U/ml),[2]; 4 mg/kg intragastric everyday,520 ± 29 U/ml
same,TG,[2]; 4 mg/kg intragastric everyday,2.57 ± 0.80 mmol/L
same,CTGF(%),[3]; 1 mg/kg intragastric everyday,7.1 ± 1.6 %
same,CTGF(%),[3]; 2 mg/kg intragastric everyday,6.4 ± 2.7 %
same,CTGF(%),[3]; 4 mg/kg intragastric everyday,6.0 ± 3.1 %
same,Pathology score,[4]; 1 mg/kg intragastric everyday,2.7 ± 1.0
same,Pathology score,[4]; 2 mg/kg intragastric everyday,1.8 ± 1.3
same,Pathology score,[4]; 4 mg/kg intragastric everyday,1.2 ± 1.1
